Laboratory results: patent US9475798B2, “Azetidine estrogen receptor modulators and uses thereof” (Genentech, Inc., priority 2013, dated 2016)

Experiments:
[1] = system: tamoxifen resistant MCF-7 tumors; assay: Breast Cancer Model; Xenograft Assay (MCF-7 Derivative); assay type: in vivo; details: female nu/nu mice
Experimental: Female nu/nu mice (with supplemental 17-β Estradiol pellets; 0.72 mg; 60 day slow release) bearing MCF-7 tumors (mean tumor volume 200 mm^3) were treated with Tamoxifen (citrate) by oral gavage. Tumor volume (length×width^2/2) and body weight were monitored twice weekly. Following a significant anti-tumor response in which tumor volume remained static, evident tumor growth was first observed at approximately 100 days of treatment. At 120 days of treatment, tamoxifen dose was increased. Rapidly growing tumors were deemed tamoxifen resistant and selected for in vivo passage into new host animals. Tumor Fragments (˜100 mm^3/animal) from the tamoxifen resistant tumors were subcutaneously implanted into the right flank of female nu/nu mice (with 17-β Estradiol pellets (0.72 mg; 60 day slow release)). Passaged tumors were maintained under constant Tamoxifen selection, and Tumor volume (length×width^2/2) was monitored weekly. When tumor volume reached ˜150-250 mm^3, animals were randomized into treatment groups (mean tumor volume 200 mm^3) and tamoxifen treatment was terminated (except for a tamoxifen control arm). Animals were treated with Vehicle or Compound daily for 4 weeks. Tumor volume and body weight were monitored twice weekly for the duration of the study. At the conclusion of the treatment period; plasma and tumor samples were taken for pharmacokinetic and pharmacodynamic analyses, respectively.

[2] = system: MCF-7 cells; assay: Breast Cancer Cell Viability Assay (MCF7, CellTiter-Glo); details: for MCF7 Viability Assay: % Viability relative to Fulvestrant: 5 days, 100-{100*[(100-% viability of Example)/(100-% viability of Fulvestrant)]}; for IC50: read-out: MCF7 Viability Assay IC50, 5 days' compound exposure;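 as to all read-outs here: CellTiter-Glo luminescence read-out, background from cell-free medium subtracted, viability expressed against untreated cells, ten-point 1:5 compound dilution series spanning 10 to 0.000005 µM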

Row | IC50 [2] | Compound | Number of Tumors Smaller at t = 27 days than at Start of study (t = 0 days) ([1]; 10mpk oral dose each day) | Number of Tumors Smaller at t = 27 days than at Start of study (t = 0 days) ([1]; 30mpk oral dose each day) | Number of Tumors Smaller at t = 27 days than at Start of study (t = 0 days) ([1]; 100mpk oral dose each day) | MCF7 Viability Assay: % Viability relative to Fulvestrant [2]
1 | 0.13 nM | CC1=C(c2cccc(O)c2)[C@H](c2ccc(OC[C@H](C)N3CC[C@@H](C)C3)cc2)Oc2ccc(O)cc21 [(S)-3-(3-Hydroxyphenyl)-4-methyl-2-(4-((S)-2-((R)-3-methylpyrrolidin-1-yl)propoxy)phenyl)-2H-chromen-6-ol, reference compound] | 0/8 | 1/8 | 1/8 | 8%
2 | 0.17 nM | CC1=C(c2ccc(F)cc2)[C@H](c2ccc(OCCN3CC(CF)C3)cc2)Oc2ccc(O)cc21 (single isomer, unassigned) [Example 3] | 2/8 | 3/8 | 5/8 | 8%
